From patent publication EP0147980A2, “A 5-nitro-2-furanyl derivative and its use as an anti-parasitic agent” (Rossignol, Jean François, priority 1983, dated 1985)
Where “and” joins values, the source holds several entries; their conditions need not be identical. Equal values may be shown once.

Assays:
Type in all cases: in vivo
Schistosoma mansoni [1] = assay: Primary prophylactic test (mortality test) against Schistosoma mansoni in mice
Procedure: The primary screening method used to evaluate prophylactic activity against Schistosoma mansoni is a mortality test. Mice are exposed to a massive number of cercariae by tail immersion. In untreated control mice this exposure produces a reproducible mortality pattern with 99+% of the mice dying between 20 and 30 days (mean survival time 24 days). The test compound is administered in a single dose two days after cercarial exposure. A compound is considered active if mice survive to 49 days, at which time they are sacrificed and examined for worms.
The test is of the "prophylactic"-type in the sense that the drug action is on the immature migrating schistosomes and prevents the development of adult worms in the portal circulation.
Mice weighing 18 to 23 grams were exposed to 3500-4500 infective S. mansoni cercariae by tail immersion for 30 minutes, and subsequently housed in groups of five per cage (5 test mice and 5 control mice). Two days after infection, the test compound of the formula (I) was administered subcutaneously as a single 1,280 mg/kg dose suspended in peanut oil to one group of five mice.
Mouse mortality was recorded daily for 49 days after infection. On the 49th day, survivors were sacrificed and the total worm burden was determined by perfusion of the liver and portal circulation (perf-o-suction technique).
Control mice exposed to at least 3500 cercariae and not treated with the test compound (I) experience 99+% mortality, with nearly all deaths occurring between about day 20 and day 30. In treated mice, deaths occurring within one week after drug administration are assumed to be induced by the toxic action of the drug itself, since, control mice rarely die during this period. The survival of drug treated mice to 49 days is interpreted as evidence of drug action which kills or otherwise prevents the development of the migrating immature schistosomes. The- survival of only one mouse has, in our experience, been difficult to reproduce, and, in general, a compound is not considered active unless two or more mice survive to 49 days.

Schistosoma mansoni [2] = assay: Primary curative test against Schistosoma mansoni in hamster
Procedure: The primary curative test evaluates the therapeutic activity of the drug against S. mansoni in hamster. Interpretation of the test is based upon observation of a shift of worms from the portal and mesenteric veins to the liver under the influence of the test drug. Hamsters weighing 150 to 250 grams were exposed to 150-250 S. mansoni cercariae by the ring method. 30 to 35 days after infection, the test drug (compound (I)) was administered as a 200 mg/kg daily dose for four consecutive days. The drug was administered by oral gavage suspended in gum syrup. Hamsters were sacrificed three days after the last drug treatment. The liver was removed, squashed between two slides, and the number of live and dead worms in the liver were recorded. From experience, the total worm burden in the portal circulation of S. mansoni infected hamsters ranges from 20 to 50 worms, i.e., […] of the total number of cercariae injected. Over 80% of these worms reside in the extra-hepatic portal and mesenteric veins. Thus, when the liver is removed in control animals about 10 worms could be counted in the liver.

S. japonicum = assay: Primary curative test against S. japonicum in hamsters; conditions: 1 g/kg single oral gavage
Text: The primary curative test evaluates the therapeutic activity of the drug against S. japonicum in hamsters. Interpretation of the test is based upon observation of a shift of worms from the portal and mesenteric veins to the liver under the influence of the test drug. In addition the mortality of the worms found in the liver, portal and mesenteric veins is also an important criteria of effectiveness in establishing the schistosomicidal effectiveness of the drug. Hamsters weighing 150 to 250 grams were exposed to 100 S. japonicum cercariae by the ring method. 35 to 45 days after infection, the test compound (I) was administered as a single […] by oral gavage, the product being suspended in gum syrup. Out of 10 infected animals, 5 were so treated, with 5 being used as control animals. Hamsters were sacrificed three days after treatment; the liver was removed as well as the portal and mesenteric veins, squashed between two slides and the number of live or dead worms in the liver, the portal and mesenteric veins was recorded.

[3] = Acute oral toxicity study in mice
Procedure: The test chemical was administered as a single 4,000 mg/kg oral dose to five male and five female Swiss mice.

[4] = individual surviving mice (Mouse 1-3) sacrificed day 49, 1,280 mg/kg s.c.
[5] = mean of three surviving mice, day 49, 1,280 mg/kg s.c.
[6] = individual hamsters 1-5, 200 mg/kg daily for four consecutive days, oral gavage, sacrificed three days after last treatment, 200 mg/kg
[7] = individual treated hamsters 1-5

COc1ccc(NC(=O)C=Cc2ccc([N+](=O)[O-])o2)c(C)c1 [compound (I), N-(4-methoxy-2-methylphenyl)-3-(5-nitro-2-furanyl) propenamide]
mice survived until day 49 (Schistosoma mansoni [1]; group of five mice, single 1,280 mg/kg subcutaneous dose in peanut oil two days after infection): Three | day of death of the two test mice that died (Schistosoma mansoni [1]; group of five mice, single 1,280 mg/kg subcutaneous dose, control mice died at days 19, 22, 25, 28 and 32): 41 days | worm burden, Female (Schistosoma mansoni [1]; [4]): 5 and 7 and 6 | worm burden, Total (Schistosoma mansoni [1]; [4]): 15 and 19 and 16 | worm burden, Male (Schistosoma mansoni [1]; individual surviving mice (Mouse 1-3) sacrificed day 49, 1,280 mg/kg s.c., perfusion of liver and portal circulation): 10 (2×) and 12 | worm burden, Female, mean (Schistosoma mansoni [1]; [5]): 6.0 | worm burden, Male, mean (Schistosoma mansoni [1]; [5]): 10.6 | worm burden, Total, mean (Schistosoma mansoni [1]; [5]): 16.6 | activity against the migrating stage of Schistosoma mansoni in mice (Schistosoma mansoni [1]; single subcutaneous administration of 1,280 mg/kg, active = two or more mice survive to 49 days): active | shift of worms from the portal and mesenteric veins to the liver (Schistosoma mansoni [2]; 200 mg/kg daily x 4 days oral, parasites in the liver were dead): marked shift of the worms from the portal and mesenteric veins to the liver | effective dose (Schistosoma mansoni [2]; for four consecutive days, oral gavage, hamster): 200 mg/kg per day | No. of worms found in the liver, Treated Animals, F (Schistosoma mansoni [2]; [6]): 17 and 6 and 18 and 60 and 54 | No. of worms found in the liver, Treated Animals, M (Schistosoma mansoni [2]; [6]): 17 and 10 (2×) and 50 and 46 | Mean No. of worms found in the liver, Treated Animals, F (Schistosoma mansoni [2]; mean of five treated hamsters, 200 mg/kg daily x 4 days oral, controls 12.0): 31.0 | Mean No. of worms found in the liver, Treated Animals, M (Schistosoma mansoni [2]; mean of five treated hamsters, 200 mg/kg daily x 4 days oral, controls 15.3): 26.6 | shift of worms from the portal and mesenteric veins to the liver (S. japonicum): marked shift of the worms from the portal and mesenteric veins to the liver | worms killed on the average in the liver, the portal and mesenteric veins (S. japonicum; average of five treated hamsters): about 86% | No. of worms found, Liver, Female (S. japonicum; [7]): 7 and 6 (3×) and 4 | No. of worms found, Mesenteric, Female (S. japonicum; [7]): 5 and 4 (3×) and 2 | No. of worms found, Mesenteric, Male (S. japonicum; [7]): 7 (2×) and 6 and 4 and 8 | No. of worms found, Portal, Female (S. japonicum; [7]): 0 | No. of worms found, Portal, Male (S. japonicum; [7]): 0 | No. of worms found, Liver, Male (S. japonicum; individual treated hamsters 1-5, sacrificed three days after treatment): 8 (2×) and 14 (2×) and 9 | % dead (S. japonicum; worms, individual treated hamsters 1-5, controls 0): 100% (3×) and 70% and 60% | LD50 at 336 h ([3]; mouse, in vivo, po, administered orally in mice): > 4000 mg/kg | clinical observation, weights and macroscopic examination of organs ([3]; single 4,000 mg/kg oral dose, five male and five female Swiss mice, 14 days): no adverse pattern
